Like-named read-outs stand apart in the source and are kept apart here.

For data set [1] the following is noted: solid form, known from prior patents (EP 298 650 B1, CA 1,314,876), cited from earlier work.
Data set [2] can be described thus: Hygroscopicity of azithromycin forms. Type of data set: physicochemical. The conditions noted are these: solid form.
Data set [3] in a line: Extended vacuum drying, water (Karl-Fischer) and isopropanol (gas chromatography) content. Type of data set: physicochemical. Conditions: vacuum 1-10 mm Hg, 50° C. to 60° C., beyond 12-24 hours. On the procedure: According to this invention, azithromycin monohydrate isopropanol clathrate contains three molecules of isopropanol for every ten molecules of azithromycin monohydrate. The process comprises the dissolution of azithromycin in isopropanol to which water is added slowly while stirring, resulting in the precipitation of crystalline azithromycin monohydrate isopropanol clathrate. The volume of solvent used is such as to be sufficient to dissolve azithromycin. The addition of the water is carried out between 0° and 30° C. and preferably between 15° C. to 25° C. The product is filtered and washed with a mixture of water-isopropanol and dried under vacuum (1-10 mm Hg) at 50° C. to 60° C. for 12-24 hours to obtain azithromycin monohydrate isopropanol clathrate in high yields. […] The water content of azithromycin monohydrate isopropanol clathrate was measured by the Karl-Fischer method and its isopropanol content was determined by gas chromatography.

As for `CC[C@H]1OC(=O)[C@H](C)[C@@H](O[C@H]2C[C@@](C)(OC)[C@@H](O)[C@H](C)O2)[C@H](C)[C@@H](O[C@@H]2O[C@H](C)C[C@H](N(C)C)[C@H]2O)[C@](C)(O)C[C@@H](C)CN(C)[C@H](C)[C@@H](O)[C@]1(C)O` [Azithromycin monohydrate, azithromycin monohydrate], the hygroscopicity entry in data set [1] (monohydrate) was “hygroscopic”.

As for “azithromycin monohydrate isopropanol clathrate”, the hygroscopicity entry in data set [2] is given as “not hygroscopic”. Besides, in data set [3], the “effect of extension of vacuum drying on water and isopropanol content” value is listed as “does not reduce either the water content or the isopropanol content”.

For `CC[C@H]1OC(=O)[C@H](C)[C@@H](O[C@H]2C[C@@](C)(OC)[C@@H](O)[C@H](C)O2)[C@H](C)[C@@H](O[C@@H]2O[C@H](C)C[C@H](N(C)C)[C@H]2O)[C@](C)(O)C[C@@H](C)CN(C)[C@H](C)[C@@H](O)[C@]1(C)O` [azithromycin dihydrate], in data set [1] (dihydrate), the hygroscopicity result is reported as “not hygroscopic”.

The values above are taken from USRE39087E1, “Azithromycin monohydrate isopropanol clathrate and methods for the manufacture thereof” (Apotex, Inc., priority 1998, dated 2006).
